From the Kinase Knowledgebase extract (Sharma et al. 2016)

Biological target: EGFR (human) (UniProt P00533)
Settings: a431

EGFR (human), sequence (P00533 whole entry, looked up): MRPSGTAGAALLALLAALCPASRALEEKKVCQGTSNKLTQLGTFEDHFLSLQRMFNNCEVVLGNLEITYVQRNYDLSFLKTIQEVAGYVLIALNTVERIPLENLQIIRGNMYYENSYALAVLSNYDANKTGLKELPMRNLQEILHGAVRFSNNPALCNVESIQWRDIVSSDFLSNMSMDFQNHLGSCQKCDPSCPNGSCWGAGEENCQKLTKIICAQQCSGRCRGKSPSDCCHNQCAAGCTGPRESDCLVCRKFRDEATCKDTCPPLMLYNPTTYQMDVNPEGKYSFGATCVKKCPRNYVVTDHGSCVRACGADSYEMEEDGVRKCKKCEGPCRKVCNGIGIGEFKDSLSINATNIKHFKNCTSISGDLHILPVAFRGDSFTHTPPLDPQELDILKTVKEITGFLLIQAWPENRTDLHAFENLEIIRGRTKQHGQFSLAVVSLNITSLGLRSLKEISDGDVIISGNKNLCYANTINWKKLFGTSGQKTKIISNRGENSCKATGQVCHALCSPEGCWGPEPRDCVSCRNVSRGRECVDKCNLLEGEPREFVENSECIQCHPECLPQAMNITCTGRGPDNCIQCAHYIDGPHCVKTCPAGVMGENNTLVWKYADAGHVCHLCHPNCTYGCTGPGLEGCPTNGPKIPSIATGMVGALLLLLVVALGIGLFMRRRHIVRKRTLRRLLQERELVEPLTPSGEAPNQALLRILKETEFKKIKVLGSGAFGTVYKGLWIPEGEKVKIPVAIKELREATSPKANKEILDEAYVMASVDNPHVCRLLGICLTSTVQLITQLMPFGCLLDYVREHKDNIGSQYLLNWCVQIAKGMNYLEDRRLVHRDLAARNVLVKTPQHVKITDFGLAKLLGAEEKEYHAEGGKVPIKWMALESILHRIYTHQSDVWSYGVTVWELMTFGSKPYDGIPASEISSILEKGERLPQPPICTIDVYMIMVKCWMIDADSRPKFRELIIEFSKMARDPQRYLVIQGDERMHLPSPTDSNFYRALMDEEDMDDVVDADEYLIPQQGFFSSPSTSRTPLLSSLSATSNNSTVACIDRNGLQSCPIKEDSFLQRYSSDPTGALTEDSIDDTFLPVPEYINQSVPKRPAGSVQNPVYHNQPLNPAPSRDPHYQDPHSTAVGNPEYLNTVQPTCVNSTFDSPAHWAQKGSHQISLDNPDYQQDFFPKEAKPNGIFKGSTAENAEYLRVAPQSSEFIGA

Row | SMILES | IC50 [µM]
1 | C=CC(=O)N1CC[C@H](Oc2cc3c(Nc4ccc(F)c(Cl)c4F)ncnc3cc2OC)C[C@H]1C(=O)NCCC | 0.012
2 | C=CC(=O)N1CC[C@H](Oc2cc3c(Nc4ccc(F)c(Cl)c4F)ncnc3cc2OC)C[C@H]1C(=O)NCCN1CCOCC1 | 0.0083
3 | C=C(CN1CCN(C)CC1)C(=O)N1CC(Oc2cc3c(Nc4ccc(F)c(Cl)c4F)ncnc3cc2OC)C1 | 0.001
4 | C=CC(=O)N1CC[C@H](Oc2cc3c(Nc4ccc(Br)cc4F)ncnc3cc2OC)C1 | 0.015
5 | COc1cc2ncnc(Nc3ccc(F)c(Cl)c3F)c2cc1OC1CN(C(=O)/C=C\CN(C)C)C1 | 0.015
6 | C=CC(=O)N1CC(Oc2cc3c(Nc4ccc(F)c(Cl)c4F)ncnc3cc2OCCOC)C1 | 0.883
7 | COc1cc2ncnc(Nc3ccc(F)c(Cl)c3F)c2cc1OC1CCN(C(=O)C=C(C)C)CC1 | 0.038
8 | C=CC(=O)N1CCC(Oc2cc3c(Nc4cccc(C(F)(F)F)c4)ncnc3cc2OC)CC1 | 0.058
9 | CNC(=O)/C=C/C(=O)N1CCC(Oc2cc3c(Nc4ccc(F)c(Cl)c4F)ncnc3cc2OC)CC1 | 0.048
10 | C=CC(=O)N1CCC(Oc2cc3c(Nc4ccc5c(c4)CCC5)ncnc3cc2OC)CC1 | 0.029
11 | C=CC(=O)N1CCCC(Oc2cc3c(Nc4ccc(F)c(Cl)c4F)ncnc3cc2OC)C1 (stereo not given) | 0.006
12 | COc1cc2ncnc(Nc3cccc(Cl)c3F)c2cc1OC1CN(C(=O)/C=C/CN(C)C)C1 | 0.009
13 | COc1cc2ncnc(Nc3ccc(F)c(Cl)c3F)c2cc1OC1CN(C(=O)/C=C/Cl)C1 | 0.044
14 | C=CC(=O)N1CCC(Oc2cc3c(Nc4ccc(Cl)c(C#N)c4)ncnc3cc2OC)CC1 | 0.035
15 | COC(=O)/C=C\C(=O)N1CC(Oc2cc3c(Nc4cccc(Cl)c4F)ncnc3cc2OC)C1 | 0.001
16 | C=CC(=O)N1CCC(Oc2cc3c(Nc4ccc(Cl)cc4O)ncnc3cc2OC)CC1 | 0.032
17 | COc1cc2ncnc(Nc3ccc(F)c(Cl)c3F)c2cc1O[C@H]1CCN(C(=O)/C=C/CN2CCCC2)C1 | 0.008
18 | C=CC(=O)N1CCC(Oc2cc3c(Nc4cccc(S)c4)ncnc3cc2OC)CC1 | 0.3
19 | C=CC(=O)N1CC(Oc2cc3c(Nc4ccc(F)c(Cl)c4F)ncnc3cc2O)C1 | 0.381
20 | C=C(C)C(=O)N1CC(Oc2cc3c(Nc4ccc(F)c(Cl)c4F)ncnc3cc2OC)C1 | 0.029
21 | C=CC(=O)N1CC[C@@H](Oc2cc3c(Nc4ccc(Br)cc4F)ncnc3cc2OC)C[C@@H]1C(N)=O | 0.0011
22 | C=CC(=O)N1CCC(Oc2cc3c(Nc4cccc(Cl)c4C)ncnc3cc2OC)CC1 | 0.009
23 | COc1cc2ncnc(Nc3cccc(Cl)c3F)c2cc1O[C@H]1CCN(C(=O)/C=C/CN(C)C)C1 | 0.008

Row | SMILES | IC50 [µM]
24 | C=CC(=O)N1CCC(Oc2cc3c(Nc4cccc(Cl)c4OC)ncnc3cc2OC)CC1 | 0.003
25 | C=CC(=O)N1CC[C@H](Oc2cc3c(Nc4ccc(OCc5ccccn5)c(Cl)c4)ncnc3cc2OC)C1 | 0.014
26 | C=CC(=O)N1CCC(Oc2cc3c(Nc4cc(Cl)c(O)c(Cl)c4)ncnc3cc2OC)CC1 | 0.179
27 | C=CC(=O)N1CCC(Oc2cc3c(Nc4ccccc4Cl)ncnc3cc2OC)CC1 | 0.065
28 | C=CC(=O)N1CCC(Oc2cc3c(Nc4ccc(C)c(C)c4)ncnc3cc2OC)CC1 | 0.019
29 | COc1cc2ncnc(Nc3cccc(Cl)c3F)c2cc1OC1CCN(C(=O)/C=C/CN(C)C)CC1 | 0.076
30 | C=CC(=O)N1CCC(Oc2cc3c(Nc4ccc(O)c(F)c4)ncnc3cc2OC)CC1 | 0.129
31 | C=CC(=O)N1CCC(Oc2cc3c(Nc4cccc(C#N)c4)ncnc3cc2OC)CC1 | 0.0037
32 | CN(C)C/C=C/C(=O)N1CC[C@H](Oc2ccc3ncnc(Nc4ccc(F)c(Cl)c4F)c3c2)C1 | 0.025
33 | COc1cc2ncnc(Nc3ccc(F)c(Cl)c3F)c2cc1OC1CCN(C(=O)/C=C/C(=O)NO)CC1 | 0.187
34 | COC(=O)/C=C\C(=O)N1CCC(Oc2cc3c(Nc4ccc(F)c(Cl)c4F)ncnc3cc2OC)CC1 | 0.009
35 | C=CC(=O)N1CC[C@@H](Oc2cc3c(Nc4ccc(F)c(Cl)c4F)ncnc3cc2OC)C[C@@H]1C(=O)NO | 0.0017
36 | C=CC(=O)N1CCC(Oc2cc3c(Nc4ccc(Br)c(F)c4)ncnc3cc2OC)CC1 | 0.007
37 | C=CC(=O)N1CCC(Oc2cc3c(Nc4cccc([N+](=O)[O-])c4)ncnc3cc2OC)CC1 | 0.011
38 | C=CC(=O)N1CCC(Oc2cc3c(Nc4ccc(F)c(C#N)c4)ncnc3cc2OC)CC1 | 0.008
39 | C=CC(=O)N1CC[C@@H](Oc2cc3c(Nc4ccc(F)c(Cl)c4F)ncnc3cc2OC)C[C@@H]1C(=O)NCCS(C)(=O)=O | 0.0024
40 | C=C(CN(C)C)C(=O)N1CCC(Oc2cc3c(Nc4ccc(F)c(Cl)c4F)ncnc3cc2OC)CC1 | 0.0027
41 | COc1cc2ncnc(Nc3ccc(F)c(Cl)c3F)c2cc1O[C@H]1CCN(C(=O)/C=C/CN(C)C)C1 | 0.004
42 | C=CC(=O)N1CCC(Oc2cc3c(Nc4ccc(F)c(C)c4)ncnc3cc2OC)CC1 | 0.008
43 | C=CC(=O)N1CC[C@H](Oc2cc3c(Nc4ccc(F)c(Cl)c4F)ncnc3cc2OC)C[C@H]1C(=O)NC | 0.0022
44 | C=C(CN(C)C)C(=O)N1CCC(Oc2cc3c(Nc4ccc(Cl)c(Cl)c4F)ncnc3cc2OC)CC1 | 0.004
45 | C=CC(=O)N1CCC(Oc2cc3c(Nc4ccc(OCc5cccc(F)c5)c(Cl)c4)ncnc3cc2OC)CC1 | 0.01
46 | CCN(CC)C/C=C/C(=O)N1CC[C@H](Oc2cc3c(Nc4ccc(F)c(Cl)c4F)ncnc3cc2OC)C1 | 0.028

Row | SMILES | IC50 [µM]
47 | COc1cc2ncnc(Nc3ccc(F)c(Cl)c3F)c2cc1O[C@H]1CCN(C(=O)C#CCN(C)C)C1 | 0.033
48 | COC(=O)/C=C\C(=O)N1CCC(Oc2cc3c(Nc4ccc(Cl)c(Cl)c4F)ncnc3cc2OC)CC1 | 0.008
49 | C=CC(=O)N1CC[C@H](Oc2cc3c(Nc4ccc5c(cnn5Cc5cccc(F)c5)c4)ncnc3cc2OC)C1 | 0.019
50 | C/C=C/C(=O)N1CC[C@H](Oc2cc3c(Nc4ccc(F)c(Cl)c4F)ncnc3cc2OC)C1 | 0.085
51 | C=C(NC(C)=O)C(=O)N1CCC(Oc2cc3c(Nc4ccc(Cl)c(Cl)c4F)ncnc3cc2OC)CC1 | 0.05
52 | C=CC(=O)N1CC[C@H](Oc2cc3c(Nc4ccc(F)c(Cl)c4F)ncnc3cc2OC)C[C@H]1C(=O)NCCCO | 0.02
53 | C=CC(=O)Nc1cccc(Nc2ncnc3cc(OC)c(OC4CCN(C(=O)C=C)CC4)cc23)c1 | 0.4
54 | C=CC(=O)N1CC(Oc2cc3c(Nc4cccc(C#N)c4)ncnc3cc2OC)C1 | 0.017
55 | C=C(CN1CCOCC1)C(=O)N1CCC(Oc2cc3c(Nc4ccc(F)c(Cl)c4F)ncnc3cc2OC)CC1 | 0.01
56 | COc1cc2ncnc(Nc3ccc(F)c(Cl)c3F)c2cc1OC1CCN(C(=O)/C=C\CN(C)C)CC1 | 0.006
57 | COc1cc2ncnc(Nc3ccc(Cl)c(Cl)c3F)c2cc1OC1CCN(C(=O)/C=C\Cl)CC1 | 0.014
58 | C=CC(=O)N1CCC(Oc2cc3c(Nc4cccc(SC)c4)ncnc3cc2OC)CC1 | 0.305
59 | C=CC(=O)N1CCC(Oc2cc3c(N[C@H](C)c4ccccc4)ncnc3cc2OC)CC1 | 0.514
60 | C=CC(=O)N1CCC(Oc2cc3c(Nc4ccc(O)c(Cl)c4)ncnc3cc2OC)CC1 | 0.109
61 | C=CC(=O)N1CCC(Oc2cc3c(Nc4ccc(O)cc4Cl)ncnc3cc2OC)CC1 | 0.176
62 | C=CC(=O)N1CC[C@H](Oc2cc3c(Nc4ccc(F)c(Cl)c4F)ncnc3cc2OC)C[C@H]1C(=O)NC(C)C | 0.0075
63 | COc1cc2ncnc(Nc3ccc(Cl)c(Cl)c3F)c2cc1OC1CCN(C(=O)/C=C/Cl)CC1 | 0.039
64 | C=C(CO)C(=O)N1CCC(Oc2cc3c(Nc4ccc(Cl)c(Cl)c4F)ncnc3cc2OC)CC1 | 0.044
65 | C=CC(=O)N1CC[C@H](Oc2cc3c(Nc4ccc(F)c(Cl)c4F)ncnc3cc2OC)C[C@H]1C(=O)NCC | 0.008
66 | C=CC(=O)N1CC[C@@H](Oc2cc3c(Nc4ccc(F)c(Cl)c4F)ncnc3cc2OC)C[C@@H]1C(=O)O | 0.979
67 | C=CC(=O)N1CCC(Oc2cc3c(Nc4cccc(N(C)C)c4)ncnc3cc2OC)CC1 | 0.142
68 | C=CC(=O)N1CC[C@H](Oc2cc3c(Nc4ccc(F)c(Cl)c4F)ncnc3cc2OC)C[C@H]1C(=O)NO | 0.01
69 | C#Cc1cccc(Nc2ncnc3cc(OC)c(OC4CCN(C(=O)C=C)CC4)cc23)c1 | 0.052

Row | SMILES | IC50 [µM]
70 | COc1cc2ncnc(Nc3ccc(Cl)c(Cl)c3F)c2cc1OC1CCN(C(=O)/C=C/C(=O)O)CC1 | 0.516
71 | COc1cc2ncnc(Nc3ccc(F)c(Cl)c3F)c2cc1OC1CN(C(=O)/C=C/CN(C)C)C1 | 0.036
72 | C=CC(=O)NCCOc1cc2c(Nc3ccc(F)c(Cl)c3F)ncnc2cc1OC | 0.699
73 | CC#CC(=O)N1CC[C@H](Oc2cc3c(Nc4ccc(F)c(Cl)c4F)ncnc3cc2OC)C1 | 0.037
74 | COc1cc2ncnc(Nc3ccc(F)c(Cl)c3F)c2cc1OC1CCN(C(=O)/C=C\C(=O)O)CC1 | 0.041
75 | C=CC(=O)N1CC[C@H](Oc2cc3c(Nc4cccc(Cl)c4F)ncnc3cc2OC)C1 | 0.531
76 | C=CC(=O)N1CC[C@@H](Oc2cc3c(Nc4ccc(F)c(Cl)c4F)ncnc3cc2OC)C1 | 0.222
77 | CNC(=O)/C=C/C(=O)N1CC(Oc2cc3c(Nc4ccc(F)c(Cl)c4F)ncnc3cc2OC)C1 | 0.041
78 | COc1cc2ncnc(Nc3ccc(F)c(Cl)c3F)c2cc1OCCNC(=O)/C=C/CN(C)C | 0.018
79 | C=CC(=O)N1CCC(Oc2cc3c(Nc4ccc(Cl)c(C)c4)ncnc3cc2OC)CC1 | 0.093
80 | C=CC(=O)N1CCC(Oc2cc3c(NCc4cccc(Cl)c4)ncnc3cc2OC)CC1 | 0.061
81 | C=C(CN1CCCCC1)C(=O)N1CC(Oc2cc3c(Nc4ccc(F)c(Cl)c4F)ncnc3cc2OC)C1 | 0.0091
82 | COc1cc2ncnc(Nc3ccc(F)c(Cl)c3F)c2cc1O[C@H]1CCN(C(=O)C#CCCN2CCN(C)CC2)C1 | 0.053
83 | C=C(CN1CCCCC1)C(=O)N1CC(Oc2cc3c(Nc4cccc(Cl)c4F)ncnc3cc2OC)C1 | 0.0024
84 | C=CC(=O)N1CCC(Oc2cc3c(Nc4cccc(CCl)c4)ncnc3cc2OC)CC1 | 0.026
85 | C=CC(=O)N1CCC(Oc2cc3c(Nc4ccc(Cl)c(O)c4)ncnc3cc2OC)CC1 | 0.105
86 | C=CC(=O)N1CC[C@H](Oc2ccc3ncnc(Nc4ccc(OCc5cccc(F)c5)c(Cl)c4)c3c2)C1 | 0.015
87 | COc1cc2ncnc(Nc3ccc(Cl)c(Cl)c3F)c2cc1OC1CCN(C(=O)/C=C\C(=O)O)CC1 | 0.322
88 | C=CC(=O)N1CC[C@H](Oc2cc3c(Nc4ccc(F)c(Cl)c4F)ncnc3cc2OC)C[C@H]1C(=O)OC | 0.005
89 | C=CC(=O)N1CCC(Oc2cc3c(Nc4ccc(F)c(Cl)c4F)ncnc3cc2OCCCN2CCOCC2)CC1 | 0.004
90 | C=CC(=O)N1CCC(Oc2cc3c(Nc4ccc(C(C)C)cc4)ncnc3cc2OC)CC1 | 0.023
